Data on four compounds can be found in US12187752B2, “Solid forms and combination compositions comprising a beta-lactamase inhibitor and uses thereof” (priority 2017, dated 2025).

In brackets after ≈: the same amount, converted by molar mass. Entries after “also recorded” stand apart in the source; their conditions may differ. Counter-ions that a name gives are not always drawn. Like-named read-outs stand apart in the source and are kept apart here.

Series [1] has as its system Pseudomonas aeruginosa. In words: MIC testing, Pseudomonas aeruginosa isolates non-susceptible to meropenem. The series is classed as cell-based. Particulars: for % S@8: 507 isolates non-susceptible to meropenem; for MIC50 / MIC90: Pseudomonas aeruginosa.
The nature of series [2]: Stability of aqueous solutions of combination formulation at pH 5.0. The series is classed as physicochemical. Particulars: pH 5.0 at 25° C.
For series [3], the system named is Pseudomonas aeruginosa. In words: MIC testing, Pseudomonas aeruginosa isolates non-susceptible to cefepime. The series is classed as cell-based. Particulars: for % S@8: 554 isolates non-susceptible to cefepime; for MIC50 / MIC90: Pseudomonas aeruginosa.
Series [4] concerns Stenotrophomonas maltophilia. The experiment in a line: MIC testing, Stenotrophomonas maltophilia. The series is classed as cell-based. The settings on record: for MIC90 / MIC50: Stenotrophomonas maltophilia. From the text:
Stenotrophomonas maltophilia is a Gram negative bacillus. It is an opportunistic MDR pathogen. It has been linked to infections with high morbidity and mortality in severely immunocompromised and debilitated individuals.

The test system of series [5] is Elizabethkingia meningoseptica. The experiment in a line: MIC testing, Elizabethkingia meningoseptica. The series is classed as cell-based. Particulars: for MIC50 / MIC90: Elizabethkingia meningoseptica.
Series [6] can be described thus: Physical stability of Compound 1-dihydrochloride at four temperature/RH conditions. The series is classed as physicochemical. The method, then: A physical stability study of Compound 1-dihydrochloride (mixture of Form 1 and Form 2) was conducted. A solid sample of Compound 1-dihydrochloride was incubated under four relative humidity and temperature conditions: 5° C./ambient RH, 25° C./60% RH, 30° C./65% RH and 40° C./75% RH. At regular intervals, the compound was analyzed by HR-XRPD and TGMS. […] The water content is in line with the monohydrate nature of Compound 1-dihydrochloride Form 1. The TGMS analyses recorded for the 2 weeks and 1-month incubation is also along the 3.8% of water (1 molecule of water per molecule of API).

Series [7] in a line: Solubility of Compound 1-dihydrochloride in IPA/water mixtures. The settings on record: IPA/water mixture, aqueous with cosolvent or surfactant or cyclodextrin, thermodynamic from solid. The series is classed as physicochemical. The method, then:
In order to design a re-crystallization process for Compound 1-dihydrochloride salt from water as solvent and IPA as anti-solvent, the solubility of the API in these combinations were determined. Suspensions in various water/IPA mixtures were prepared and incubated for 24 hours at 5°, 25°, 40° and 50° C. Upon completion of the incubation time the solids were separated from the mother liquors by centrifugation and filtration and the concentration of Compound 1 in solution was determined by HPLC analysis. The remaining solids were analyzed by HT-XRPD.

The nature of series [8]: Polymorph and hydrate screen: physical stability of solid forms (AAC, drying). The settings on record: 40° C. and 75% RH for 2 days. The series is classed as physicochemical. The protocol: The solids obtained from the various crystallization experiments were analyzed by High Throughput XRPD (HT-XRPD). If relevant, the mother liquors were allowed to evaporate completely, and the remaining solids were analyzed by HT-XRPD. Subsequently, all solids were exposed to accelerated aging conditions for 48 hours at 40° C. and 75% RH (AAC).
From the polymorph screen, four novel diffractograms were identified in addition to the two known forms of Compound 1-dihydrochloride, Form 1 and Form 2. Form 1 was the most abundant solid form found in this polymorph screen. The novel diffractograms were designated Forms 3, 4, 5 and 6. All these forms were found with low frequency and were poorly crystalline. […] The HT-XRPD patterns of the new Forms 3, 4, 5 and 6 are shown in FIG. 12, FIG. 13, FIG. 14, and FIG. 15, respectively.
After completion of the equilibration time, the remaining solids were analyzed by HT-XRPD dry under ambient conditions and dried under vacuum. The mother liquors were analyzed by Karl Fisher titration for water content determination. […] The solutions from these experiments were evaporated under vacuum (200 mBar) and the obtained dried solids analyzed by HT-XRPD. All the solids were then exposed to 40° C. and 75% RH for two days.

The MIC50 is an inhibitory concentration at the 50% level, which refers to growth in some studies and to a panel of isolates in others. Broadly, the MIC90 is the lowest concentration that inhibits either 90% of growth or 90% of the strains tested, depending on the study. For the compound `CO/N=C(\C(=O)N[C@@H]1C(=O)N2C(C(=O)[O-])=C(C[N+]3(C)CCCC3)CS[C@H]12)c1csc(N)n1` [Cefepime, cefepime], the “% S@8” value in the series with Pseudomonas aeruginosa [1] is on record as 30.8%; with Pseudomonas aeruginosa [3], 0%. For the same compound, the “MIC Range” value was 1-128 in the series with Pseudomonas aeruginosa [1] (507 isolates non-susceptible to meropenem (MIC>8 μg/mL)) and 16-32 in series [5] (N=10 strains, in µg/mL). For the same compound, the MIC50 against Pseudomonas aeruginosa [1] is 32 µg/mL (≈ 66.6 µM); in the series on Pseudomonas aeruginosa [3], 32 µg/mL (≈ 66.6 µM); in series [4] (read-out: MIC50), 32 µg/mL (≈ 66.6 µM); in series [5] (N=10 strains), 16 µg/mL (≈ 33.3 µM). In addition, the MIC90 against Pseudomonas aeruginosa [1] was 256 µg/mL (≈ 533 µM); in the series on Pseudomonas aeruginosa [3], 256 µg/mL (≈ 533 µM); in series [4] it was 64 µg/mL (≈ 133 µM); in series [5] (N=10 strains, read-out: MIC90), 32 µg/mL (≈ 66.6 µM). Also, in series [2] (20 hours), the “% present, cefepime” value was found to be 99%. The “% S” value in series [4] came to 20%.

Broadly, the solubility is the concentration that dissolves in the medium under given conditions. Consider `NCCN[C@H]1CC[C@H](CC(=O)N[C@H]2Cc3cccc(C(=O)O)c3OB2O)CC1` [Compound 1-dihydrochloride, (R)-3-(2-(trans-4-(2-aminoethylamino)cyclohexyl)acetamido)-2-hydroxy-3,4-dihydro-2H-benzo[e][1,2]oxaborinine-8-carboxylic acid dihydrochloride], for which, in series [6] (5° C./ambient RH, 25° C./60% RH, 30° C./65% RH and 40° C./75% RH, HR-XRPD, starting mixture of Form 1 and Form 2), the “Solid form after three days exposure” value was “full conversion to Form 1”. Also, the “Solid form upon incubation for extended periods” value in series [6] (same four conditions, at least up to 1 month) is given as “No significant changes in the solid form”. Besides, the solubility at 24 h came to 271 mg/mL in series [7] (5 °C, IPA/H2O (40:60), 5° C.); 217 mg/mL in series [7] (5 °C, IPA/H2O (50:50), 5° C.); 129 mg/mL in series [7] (5 °C, IPA/H2O (60:40), 5° C.); 78.6 mg/mL in series [7] (5 °C, IPA/H2O (70:30), 5° C.); 28 mg/mL in series [7] (5 °C, IPA/H2O (80:20), 5° C.); 4.2 mg/mL in series [7] (5 °C, IPA/H2O (90:10), 5° C.). The solubility at 24 h in series [7] (25 °C, IPA/H2O (40:60), 25° C.) was 429 mg/mL; in series [7] (25 °C, IPA/H2O (50:50), 25° C.), 336 mg/mL; in series [7] (25 °C, IPA/H2O (60:40), 25° C.), 205 mg/mL; in series [7] (25 °C, IPA/H2O (70:30), 25° C.), 101 mg/mL; in series [7] (25 °C, IPA/H2O (80:20), 25° C.), 41.7 mg/mL; in series [7] (25 °C, IPA/H2O (90:10), 25° C.), 4.2 mg/mL. In addition, the solubility at 24 h was found to be 567 mg/mL in series [7] (40 °C, IPA/H2O (40:60), 40° C.); 454 mg/mL in series [7] (40 °C, IPA/H2O (50:50), 40° C.); 424 mg/mL in series [7] (40 °C, IPA/H2O (60:40), 40° C.); 189 mg/mL in series [7] (40 °C, IPA/H2O (70:30), 40° C.); 81 mg/mL in series [7] (40 °C, IPA/H2O (80:20), 40° C.); 5.6 mg/mL in series [7] (40 °C, IPA/H2O (90:10), 40° C.). The solubility at 24 h in series [7] (50 °C, IPA/H2O (40:60), 50° C.) worked out at 714 mg/mL; in series [7] (50 °C, IPA/H2O (50:50), 50° C.), 528 mg/mL; in series [7] (50 °C, IPA/H2O (60:40), 50° C.) it was 440 mg/mL; in series [7] (50 °C, IPA/H2O (70:30), 50° C.), 235 mg/mL; in series [7] (50 °C, IPA/H2O (80:20), 50° C.), 102 mg/mL; in series [7] (50 °C, IPA/H2O (90:10), 50° C.), 7.2 mg/mL.

With `NCCN[C@H]1CC[C@H](CC(=O)N[C@H]2Cc3cccc(C(=O)O)c3OB2O)CC1` [Form 6], the “Physical stability upon exposure to AAC” value in series [8] was “physically unstable; also recorded: conversion to Form 1 was observed; also recorded: converted to Form 1”.

As for `C[C@@H](O)[C@H]1C(=O)N2C(C(=O)O)=C(S[C@@H]3CN[C@H](C(=O)N(C)C)C3)[C@H](C)[C@H]12` [Meropenem, meropenem], the “% S@8” value turned out to be 0% with Pseudomonas aeruginosa [1], 36.6% in the series on Pseudomonas aeruginosa [3] and 0% in series [5] (N=10 strains). For the same compound, the MIC50 was 32 µg/mL (≈ 83.4 µM) in the series with Pseudomonas aeruginosa [1], 16 µg/mL (≈ 41.7 µM) against Pseudomonas aeruginosa [3], 128 µg/mL (≈ 334 µM) in series [4] and 64 µg/mL (≈ 167 µM) in series [5] (N=10 strains). Moreover, the MIC90 in the series with Pseudomonas aeruginosa [1] (read-out: MIC90) is > 128 µg/mL; in the series with Pseudomonas aeruginosa [3] (read-out: MIC90) it was > 128 µg/mL; in series [4], > 128 µg/mL; in series [5], 128 µg/mL (≈ 334 µM). For the same compound, the “% present, meropenem” value in series [2] (24 hours) was determined as 89%. In addition, in series [4], the “% S” value was found to be 0%.
